Structures can show the parent of a compound that is named as a salt.
molecular target: Steroidogenic factor 1 (Homo sapiens, UniProt Q13285); test: inhibition of SF-1 LBD-driven luciferase – cell-based, CHO-K1, Gal4-SF-1 LBD, luciferase luminescence, counter-screen for RORA inhibitor project, dose response (AID 611); conditions: not given
Sequence (Q13285 whole entry, the tested form may be a part): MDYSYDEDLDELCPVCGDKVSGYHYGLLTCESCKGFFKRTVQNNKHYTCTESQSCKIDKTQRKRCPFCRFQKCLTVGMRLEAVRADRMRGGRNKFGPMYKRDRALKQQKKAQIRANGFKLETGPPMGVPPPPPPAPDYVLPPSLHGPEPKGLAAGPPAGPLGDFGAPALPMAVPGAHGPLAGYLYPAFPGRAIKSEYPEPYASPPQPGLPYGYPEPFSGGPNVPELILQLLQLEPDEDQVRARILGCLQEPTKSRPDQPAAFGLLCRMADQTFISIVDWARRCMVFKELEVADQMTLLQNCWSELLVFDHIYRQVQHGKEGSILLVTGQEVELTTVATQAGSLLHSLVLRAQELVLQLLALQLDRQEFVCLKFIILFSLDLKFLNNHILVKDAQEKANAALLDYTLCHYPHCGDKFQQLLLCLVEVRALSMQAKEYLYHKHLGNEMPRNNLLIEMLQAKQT

| IC50 [µM] | SMILES |
| --- | --- |
| 9.74 | CCOC(=O)CS(=O)(=O)c1nc(-c2ccccc2)cc(C(F)(F)F)n1 [2-[4-phenyl-6-(trifluoromethyl)pyrimidin-2-yl]sulfonylacetic acid ethyl ester] |
| 0.867 | c1ccc(-c2noc(-c3ccc4ccccc4c3)n2)nc1 [2-[5-(2-naphthyl)-1,2,4-oxadiazol-3-yl]pyridine] |
| 5.41 | Clc1cccc(-c2nc(-c3ccccn3)no2)c1 [2-[5-(3-Chloro-phenyl)-[1,2,4]oxadiazol-3-yl]-pyridine] |
| > 0.00503 | Cc1cc(C=c2sc3nc4ccccc4n3c2=O)c(C)n1-c1ccccn1 [2-[(2,5-dimethyl-1-pyridin-2-yl-pyrrol-3-yl)methylidene]-[1,3]thiazolo[3,2-a]benzimidazol-1-one] |
| 14.6 | N#Cc1c(NC(=O)CSc2nc(N)cc(=O)[nH]2)sc2c1CCCCCC2 [2-[(6-amino-4-oxo-1H-pyrimidin-2-yl)sulfanyl]-N-(3-cyano-4,5,6,7,8,9-hexahydrocycloocta[b]thiophen-2-yl)acetamide] |
| 8.33 | CCOC(=O)c1c(N)sc(C(=O)Nc2ccc3c(c2)OCO3)c1C [2-amino-5-(1,3-benzodioxol-5-ylcarbamoyl)-4-methyl-thiophene-3-carboxylic acid ethyl ester] |
| 6 | CCCc1ccc(-c2ccc(F)c(N)c2)nc1 [2-fluoranyl-5-(5-propylpyridin-2-yl)aniline] |
| > 33 | Cc1ccc(-c2nc3nc4ccccc4nc3n2Cc2ccco2)cc1 [3-(2-furanylmethyl)-2-(4-methylphenyl)imidazo[4,5-b]quinoxaline] |
| 8.46 | CCOc1ccc(-c2noc(CCC(=O)O)n2)cc1 [3-(3-p-phenetyl-1,2,4-oxadiazol-5-yl)propionic acid] |
| 0.74 | COc1cc(OC)cc(-c2cc3nc(C)c(CCC(=O)O)c(C)n3n2)c1 [3-[2-(3,5-dimethoxyphenyl)-5,7-dimethyl-6-pyrazolo[1,5-a]pyrimidinyl]propanoic acid] |
| 0.075 | CNC(=O)CCc1nc(-c2ccc(C(C)(C)C)cc2)no1 [3-[3-(4-tert-butylphenyl)-1,2,4-oxadiazol-5-yl]-N-methyl-propanamide] |
| > 99 | Cc1cc(C)cc(Nc2ccc(C(=O)O)cc2N)c1 [3-amino-4-(3,5-dimethylanilino)benzoic acid] |
| > 0.0453 | Cc1ccsc1C(=O)OCC(=O)c1cc(C)n(CC2CCCO2)c1C (centres undefined) [3-methyl-2-thiophenecarboxylic acid [2-[2,5-dimethyl-1-(2-oxolanylmethyl)-3-pyrrolyl]-2-oxoethyl] ester] |
| 7.15 | COc1ccc(-c2cc(C(F)(F)F)nc(S(C)(=O)=O)n2)cc1OC [4-(3,4-dimethoxyphenyl)-2-methylsulfonyl-6-(trifluoromethyl)pyrimidine] |
| > 3.67 | COC(=O)c1ccc(-c2nc(-c3cccs3)no2)cc1 [4-(3-thiophen-2-yl-1,2,4-oxadiazol-5-yl)benzoic acid methyl ester] |
| 6.37 | CCOc1ccc(-c2cc(CCCC(=O)NCCc3ccc(OC)c(OC)c3OC)no2)cc1 [4-(5-p-phenetylisoxazol-3-yl)-N-[2-(2,3,4-trimethoxyphenyl)ethyl]butyramide] |
| 7.45 | Cc1ccc2[nH]c3c(N4CCCCCC4)ncnc3c2c1 [4-(azepan-1-yl)-8-methyl-5H-pyrimido[5,4-b]indole] |
| 8.38 | CC1CCCCC1NS(=O)(=O)c1ccc(S(=O)(=O)NCc2ccncc2)cc1 (centres undefined) [4-N-(2-methylcyclohexyl)-1-N-(pyridin-4-ylmethyl)benzene-1,4-disulfonamide] |
| 9.51 | CCN(C1CCCCC1)S(=O)(=O)c1ccc(S(=O)(=O)NCc2ccncc2)cc1 [4-N-cyclohexyl-4-N-ethyl-1-N-(pyridin-4-ylmethyl)benzene-1,4-disulfonamide] |
| 6.51 | CCOC(=O)N1CCN(C(=O)C2CCN(c3ncnc4c3sc3cccc(F)c34)CC2)CC1 [4-[1-(9-fluorobenzothiopheno[3,2-d]pyrimidin-4-yl)isonipecotoyl]piperazine-1-carboxylic acid ethyl ester] |
| 3.24 | COc1ccccc1-c1nnc2sc(-c3ccc(N(C)C)cc3)nn12 [4-[3-(2-methoxyphenyl)-[1,2,4]triazolo[3,4-b][1,3,4]thiadiazol-6-yl]-N,N-dimethyl-aniline] |
| 2.72 | COc1ccc(-c2noc(CCCC(=O)O)n2)cc1 [4-[3-(4-methoxyphenyl)-1,2,4-oxadiazol-5-yl]butanoic acid] |
| 8.03 | Cc1ccc(-c2noc(CCCC(=O)Nc3cccnc3)n2)cc1 [4-[3-(4-methylphenyl)-1,2,4-oxadiazol-5-yl]-N-(3-pyridinyl)butanamide] |

Second part, the compound before the results:

| SMILES | IC50 [µM] |
| --- | --- |
| c1ccc(-c2noc(-c3ccc4c(c3)OCO4)n2)nc1 [2-[5-(1,3-benzodioxol-5-yl)-1,2,4-oxadiazol-3-yl]pyridine] | 1.26 |
| O=S1(=O)C=C(Sc2nc3ccccc3s2)c2ccccc21 [2-[(1,1-dioxido-1-benzothien-3-yl)thio]-1,3-benzothiazole] | 2.67 |
| O=C(CSc1nnnn1C1CC2CCC1C2)Nc1ccnc2ccccc12 (centres undefined) [2-[(1-bicyclo[2.2.1]hept-2-yl-1H-tetrazol-5-yl)thio]-N-4-quinolinylacetamide] | 0.444 |
| COc1cccc(NC(=O)CSc2nnc(-c3cc(C)n(-c4ccccc4)c3C)o2)c1 [2-[[5-(2,5-dimethyl-1-phenyl-3-pyrrolyl)-1,3,4-oxadiazol-2-yl]thio]-N-(3-methoxyphenyl)acetamide] | 3.76 |
| CCc1nn2cc(-c3ccccc3)nc2s1 [2-ethyl-6-phenyl-imidazo[2,1-b][1,3,4]thiadiazole] | > 3.67 |
| c1coc(CNc2ncnc3ccccc23)c1 [2-furfuryl(quinazolin-4-yl)amine;hydrochloride] | 17.3 |
| c1ccc(-c2cn3c4c(sc3n2)CCCC4)cc1 [2-phenyl-5,6,7,8-tetrahydroimidazo[2,1-b][1,3]benzothiazole] | 4.27 |
| N#CC(C#N)=c1ccc2c(c1)NC1(CCCCC1)N=2 [2-spiro[3H-benzimidazole-2,1'-cyclohexane]-5-ylidenepropanedinitrile] | 9.07 |
| Cc1ccc(-c2cc3c(nn2)-c2ccccc2C3=O)cc1 [3-(4-methylphenyl)-5H-indeno[1,2-c]pyridazin-5-one] | 2.62 |
| CN(C)C(=O)CCc1nc(-c2ccc(C(C)(C)C)cc2)no1 [3-[3-(4-tert-butylphenyl)-1,2,4-oxadiazol-5-yl]-N,N-dimethyl-propanamide] | 1.1 |
| CCNC(=O)CCc1nc(-c2ccc(C(C)(C)C)cc2)no1 [3-[3-(4-tert-butylphenyl)-1,2,4-oxadiazol-5-yl]-N-ethyl-propanamide] | 0.0417 |
| CC(C)(C)c1ccc(-c2noc(CCC(N)=O)n2)cc1 [3-[3-(4-tert-butylphenyl)-1,2,4-oxadiazol-5-yl]propanamide] | 0.063 |
| O=C(O)c1cccc(COc2ccccc2Cl)c1 [3-[(2-chloranylphenoxy)methyl]benzoic acid] | 0.582 |
| O=C(O)c1cccc(COc2ccc(CO)cc2Cl)c1 [3-[(2-chloro-4-methylol-phenoxy)methyl]benzoic acid] | 0.329 |
| Cc1cc(C(=O)Nc2cccc(C(=O)O)c2)oc1C [3-[(4,5-dimethyl-2-furoyl)amino]benzoic acid] | 2.16 |
| CCOc1ccc(OCc2cccc(C(=O)O)c2)cc1 [3-[(4-ethoxyphenoxy)methyl]benzoic acid] | 0.274 |
| COc1ccc(OCc2cccc(C(=O)O)c2)cc1 [3-[(4-methoxyphenoxy)methyl]benzoic acid] | 0.37 |
| O=C(c1ccc(Cl)cc1)N1CCCCC(Sc2nnc(-c3ccc4c(c3)OCO4)o2)C1=O (centres undefined) [3-[[5-(1,3-benzodioxol-5-yl)-1,3,4-oxadiazol-2-yl]sulfanyl]-1-(4-chlorobenzoyl)azepan-2-one] | 1.46 |
| Clc1ccc(-n2ncc3c(N4CCCCCC4)ncnc32)cc1 [4-(1-azepanyl)-1-(4-chlorophenyl)pyrazolo[3,4-d]pyrimidine] | 0.846 |
| Cc1ccnc(NC(=O)CCCOc2cc(=O)n(C)c3ccccc23)c1 [4-(1-methyl-2-oxidanylidene-quinolin-4-yl)oxy-N-(4-methylpyridin-2-yl)butanamide] | 8.98 |
| Cc1cccc(-n2ncc3c(N4CCOCC4)ncnc32)c1 [4-[1-(3-methylphenyl)-4-pyrazolo[3,4-d]pyrimidinyl]morpholine] | > 3.67 |
| COc1ccc(OC)c(Nc2nc(-c3ccc(O)c(O)c3)cs2)c1 [4-[2-(2,5-Dimethoxy-phenylamino)-thiazol-4-yl]-benzene-1,2-diol] | 7.17 |
| Fc1ccc2[nH]c3c(N4CCN(Cc5ccc6c(c5)OCO6)CC4)ncnc3c2c1 [4-[4-(1,3-benzodioxol-5-ylmethyl)-1-piperazinyl]-8-fluoro-5H-pyrimido[5,4-b]indole] | 3.38 |
| COc1ccc2c(c1)[nH]c1c(N3CCN(Cc4ccc5c(c4)OCO5)CC3)ncnc12 [4-[4-(1,3-benzodioxol-5-ylmethyl)piperazin-1-yl]-7-methoxy-5H-pyrimido[5,4-b]indole] | 7.25 |

same assay, conditions: inactive by the depositor's call

| IC50 [µM] | SMILES |
| --- | --- |
| 13 | Cc1cc(C)nc(SC2=CS(=O)(=O)c3ccccc32)n1 [2-[(1,1-dioxido-1-benzothien-3-yl)thio]-4,6-dimethylpyrimidine] |
| 12.4 | Cc1ccccc1NC(=O)N1CCCC(c2nc(-c3ccc(C(C)C)cc3)no2)C1 (centres undefined) [3-[3-(4-Isopropyl-phenyl)-[1,2,4]oxadiazol-5-yl]-piperidine-1-carboxylic acid o-tolylamide] |

Second part, the compound before the results:

| SMILES | IC50 [µM] |
| --- | --- |
| Cc1cccc2cc3c(nc12)S/C(=N\CC1CCCO1)N(Cc1ccco1)C3 (centres undefined) [3-(2-furanylmethyl)-9-methyl-N-(2-oxolanylmethyl)-4H-[1,3]thiazino[6,5-b]quinolin-2-imine] | 63.7 |
| O=C(O)CCSc1nc2ccccc2s1 [3-(Benzothiazol-2-ylsulfanyl)-propionic acid] | 19.1 |
| Cc1nc2sccn2c1-c1csc(NCc2ccccc2)n1 [4-(6-methyl-5-imidazo[2,1-b]thiazolyl)-N-(phenylmethyl)-2-thiazolamine] | 11.1 |
| CCCCN(CCCC)S(=O)(=O)c1ccc(C(=O)Nc2nnc(CSC)o2)cc1 [4-(dibutylsulfamoyl)-N-[5-(methylsulfanylmethyl)-1,3,4-oxadiazol-2-yl]benzamide] | 24.4 |
| Cc1ccc(S(=O)(=O)NCc2ccncc2)cc1 [4-Methyl-N-pyridin-4-ylmethyl-benzenesulfonamide] | 11.6 |

Reference: BindingDB's records for doi:10.7270/Q2PR7TCX (The Scripps Research Institute Molecular Screening Center, 2007)
